The source made the active and inactive calls. No rule for the calls is given here.
System: CCRIS mutagenicity, Ames/micronucleus/aberration tests
Assay: CCRIS mutagenicity studies
[1] = Test System: AMES SALMONELLA TYPHIMURIUM, Strain/Indicator: TA98, Metabolic Activation: NONE, Method: STANDARD PLATE
[2] = Test System: AMES SALMONELLA TYPHIMURIUM, Strain/Indicator: TA97, Metabolic Activation: HAMSTER, LIVER, S-9, AROCLOR 1254 (10 OR 30%), Method: PREINCUBATION
[3] = Test System: AMES SALMONELLA TYPHIMURIUM, Strain/Indicator: TA97, Metabolic Activation: NONE, Method: PREINCUBATION
[4] = Test System: AMES SALMONELLA TYPHIMURIUM, Strain/Indicator: TA97, Metabolic Activation: RAT, LIVER, S-9, AROCLOR 1254 (10 OR 30%), Method: PREINCUBATION
[5] = Test System: AMES SALMONELLA TYPHIMURIUM, Strain/Indicator: TA98, Metabolic Activation: HAMSTER, LIVER, S-9, AROCLOR 1254 (10 OR 30%), Method: PREINCUBATION
[6] = Test System: AMES SALMONELLA TYPHIMURIUM, Strain/Indicator: TA98, Metabolic Activation: NONE, Method: PREINCUBATION
[7] = Test System: AMES SALMONELLA TYPHIMURIUM, Strain/Indicator: TA98, Metabolic Activation: RAT, LIVER, S-9, AROCLOR 1254 (10 OR 30%), Method: PREINCUBATION
[8] = Test System: AMES SALMONELLA TYPHIMURIUM, Strain/Indicator: TA100, Metabolic Activation: HAMSTER, LIVER, S-9, AROCLOR 1254 (10 OR 30%), Method: PREINCUBATION
[9] = Test System: AMES SALMONELLA TYPHIMURIUM, Strain/Indicator: TA100, Metabolic Activation: NONE, Method: PREINCUBATION
[10] = Test System: AMES SALMONELLA TYPHIMURIUM, Strain/Indicator: TA100, Metabolic Activation: RAT, LIVER, S-9, AROCLOR 1254 (10 OR 30%), Method: PREINCUBATION
[11] = Test System: AMES SALMONELLA TYPHIMURIUM, Strain/Indicator: TA1535, Metabolic Activation: HAMSTER, LIVER, S-9, AROCLOR 1254 (10 OR 30%), Method: PREINCUBATION
[12] = Test System: AMES SALMONELLA TYPHIMURIUM, Strain/Indicator: TA1535, Metabolic Activation: NONE, Method: PREINCUBATION
[13] = Test System: AMES SALMONELLA TYPHIMURIUM, Strain/Indicator: TA1535, Metabolic Activation: RAT, LIVER, S-9, AROCLOR 1254 (10 OR 30%), Method: PREINCUBATION
[14] = Test System: AMES SALMONELLA TYPHIMURIUM, Strain/Indicator: TA100, Metabolic Activation: RAT, LIVER, S-9, AROCLOR 1254 (10%), Method: PREINCUBATION

Row | SMILES | mutagenic call [1] | mutagenic call [2] | mutagenic call [3] | mutagenic call [4] | mutagenic call [5] | mutagenic call [6] | mutagenic call [7] | mutagenic call [8] | mutagenic call [9] | mutagenic call [10] | mutagenic call [11] | mutagenic call [12] | mutagenic call [13] | mutagenic call [14] | also measured
1 | O=[N+]([O-])c1cccc2c1c([N+](=O)[O-])cc1ccccc12 | active; positive |  |  |  |  |  |  |  |  |  |  |  |  |  | mutagenic call (Test System: AMES SALMONELLA TYPHIMURIUM, Strain/Indicator: TA98(1,8-DNP6), Metabolic Activation: NONE, Method: STANDARD PLATE): active; positive; mutagenic call (Test System: AMES SALMONELLA TYPHIMURIUM, Strain/Indicator: TA98(NR), Metabolic Activation: NONE, Method: STANDARD PLATE): active; positive; mutagenic call (Test System: AMES SALMONELLA TYPHIMURIUM, Strain/Indicator: TA100, Metabolic Activation: NONE, Method: STANDARD PLATE): active; positive; mutagenic call (Test System: AMES SALMONELLA TYPHIMURIUM, Strain/Indicator: YG1021, Metabolic Activation: NONE, Method: STANDARD PLATE): active; positive; mutagenic call (Test System: AMES SALMONELLA TYPHIMURIUM, Strain/Indicator: YG1024, Metabolic Activation: NONE, Method: STANDARD PLATE): active; positive; mutagenic call (Test System: AMES SALMONELLA TYPHIMURIUM, Strain/Indicator: YG1026, Metabolic Activation: NONE, Method: STANDARD PLATE): active; positive; mutagenic call (Test System: AMES SALMONELLA TYPHIMURIUM, Strain/Indicator: YG1029, Metabolic Activation: NONE, Method: STANDARD PLATE): active; positive
2 | COc1ccc(CCC(=O)c2c(O)cc(O[C@@H]3O[C@H](CO)[C@@H](O)[C@H](O)[C@H]3O[C@@H]3O[C@@H](C)[C@H](O)[C@@H](O)[C@H]3O)cc2O)cc1O |  | inactive; negative | inactive; negative | inactive; negative | inactive; negative | inactive; negative | inactive; negative | inactive; negative | inactive; negative | inactive; negative | inactive; negative | inactive; negative | inactive; negative |  | 
3 | CCCCOCC1CO1 (centres undefined) |  |  |  |  |  |  |  |  | active; positive |  |  | active; positive |  | active; positive | mutagenic call (Test System: AMES SALMONELLA TYPHIMURIUM, Strain/Indicator: TA100, Metabolic Activation: HAMSTER, LIVER, S-9, AROCLOR 1254 (10%), Method: PREINCUBATION): active; positive; mutagenic call (Test System: AMES SALMONELLA TYPHIMURIUM, Strain/Indicator: TA100, Metabolic Activation: NONE, Method: SPOT): active; positive; mutagenic call (Test System: AMES SALMONELLA TYPHIMURIUM, Strain/Indicator: TA1535, Metabolic Activation: HAMSTER, LIVER, S-9, AROCLOR 1254 (10%), Method: PREINCUBATION): active; positive; mutagenic call (Test System: AMES SALMONELLA TYPHIMURIUM, Strain/Indicator: TA1535, Metabolic Activation: RAT, LIVER, S-9, AROCLOR 1254 (10%), Method: PREINCUBATION): active; positive
4 | C[C@@H]1[C@H](O)[C@@H](C)/C=C/C=C/C=C/C=C/C=C/C=C/C=C/[C@H](O[C@@H]2O[C@H](C)[C@@H](O)[C@H](N)[C@@H]2O)C[C@@H]2O[C@](O)(C[C@@H](O)C[C@@H](O)[C@H](O)CC[C@@H](O)C[C@@H](O)CC(=O)O[C@H]1C)C[C@H](O)[C@H]2C(=O)O |  | inactive; negative | inactive; negative | inactive; negative | inactive; negative | inactive; negative | inactive; negative | inactive; negative | inactive; negative | inactive; negative | inactive; negative | inactive; negative | inactive; negative |  | mutagenic call (End Point: IN VITRO CHROMOSOMAL ABERRATIONS, Test System: CHO-LB CELLS, Metabolic Activation: NONE): inactive; negative; mutagenic call (End Point: IN VITRO CHROMOSOMAL ABERRATIONS, Test System: CHO-LB CELLS, Metabolic Activation: RAT, LIVER, S-9, AROCLOR 1254): inactive; negative; mutagenic call (Test System: AMES SALMONELLA TYPHIMURIUM, Strain/Indicator: TA1537, Metabolic Activation: HAMSTER, LIVER, S-9, AROCLOR 1254 (30%), Method: PREINCUBATION): inactive; negative; mutagenic call (Test System: AMES SALMONELLA TYPHIMURIUM, Strain/Indicator: TA1537, Metabolic Activation: NONE, Method: PREINCUBATION): inactive; negative; mutagenic call (Test System: AMES SALMONELLA TYPHIMURIUM, Strain/Indicator: TA1537, Metabolic Activation: RAT, LIVER, S-9, AROCLOR 1254 (30%), Method: PREINCUBATION): inactive; negative
5 | O=[N+]([O-])c1ccc2cc3ccccc3cc2c1 | active; positive |  |  |  |  | active; positive |  |  | active; positive |  |  |  |  | active; positive | mutagenic call (Test System: AMES SALMONELLA TYPHIMURIUM, Strain/Indicator: TA98, Metabolic Activation: RAT, LIVER, S-9, AROCLOR 1254 (10%), Method: PREINCUBATION): active; positive; mutagenic call (Test System: AMES SALMONELLA TYPHIMURIUM, Strain/Indicator: TA98, Metabolic Activation: RAT, LIVER, S-9, AROCLOR 1254, Method: STANDARD PLATE): active; positive
6 | O=[N+]([O-])c1ccc2ccc3cccc4c3c2c1C1OC41 (centres undefined) |  |  |  |  |  | active; positive |  |  | active; positive |  |  |  |  |  | mutagenic call (Test System: AMES SALMONELLA TYPHIMURIUM, Strain/Indicator: TA98(1,8-DNP6), Metabolic Activation: RAT, LIVER, S-9, PHENOBARBITAL AND 5,6-BENZOFLAVONE, Method: PREINCUBATION): active; positive; mutagenic call (Test System: AMES SALMONELLA TYPHIMURIUM, Strain/Indicator: TA98(NR), Metabolic Activation: NONE, Method: PREINCUBATION): active; positive; mutagenic call (Test System: AMES SALMONELLA TYPHIMURIUM, Strain/Indicator: TA98, Metabolic Activation: RAT, LIVER, S-9, PHENOBARBITAL AND 5,6-BENZOFLAVONE, Method: PREINCUBATION): inactive; negative; mutagenic call (Test System: AMES SALMONELLA TYPHIMURIUM, Strain/Indicator: TA100, Metabolic Activation: RAT, LIVER, S-9, PHENOBARBITAL AND 5,6-BENZOFLAVONE, Method: PREINCUBATION): inactive; negative; mutagenic call (Test System: CHINESE HAMSTER OVARY, Strain/Indicator: CHO (HGPRT)/6-THIOGUANINE, Metabolic Activation: NONE, Method: STANDARD PLATE): active; positive; mutagenic call (Test System: CHINESE HAMSTER OVARY, Strain/Indicator: CHO (HGPRT)/6-THIOGUANINE, Metabolic Activation: RAT, LIVER, S-9, AROCLOR 1254, Method: STANDARD PLATE): active; positive; mutagenic call (Test System: UDS RODENT HEPATOCYTES, Strain/Indicator: THY INCORP, Metabolic Activation: NONE, Method: AUTORADIOGRAPHY): active; positive

From PubChem BioAssay AID1259407 (Chemical Carcinogenesis Research Information System (CCRIS), 2018)
